Assay results published in patent publication US20050074819A1, “Screening method of drug for treatment of neuropathic pain” (JAPAN HEALTH SCIENCES FOUNDATION, priority 2003, published 2005).

What was measured:
[1] = molecular target: T1, P2X4Rs (Rattus norvegicus, UniProt P51577); assay: Intracellular Ca2+ imaging (fura-2) of ATP-evoked response in primary cultured microglia; assay type: cell-based; conditions: for ATP-evoked increase in 340/360 ratio (fura-2): 10 min before and during ATP (50 μM, 10 s)
T1 construct: mixed glial culture was prepared from neonatal Wistar rats; endogenous in cells; host or cells: primary cultured microglia from neonatal Wistar rats
T1 sequence (P51577 1-388): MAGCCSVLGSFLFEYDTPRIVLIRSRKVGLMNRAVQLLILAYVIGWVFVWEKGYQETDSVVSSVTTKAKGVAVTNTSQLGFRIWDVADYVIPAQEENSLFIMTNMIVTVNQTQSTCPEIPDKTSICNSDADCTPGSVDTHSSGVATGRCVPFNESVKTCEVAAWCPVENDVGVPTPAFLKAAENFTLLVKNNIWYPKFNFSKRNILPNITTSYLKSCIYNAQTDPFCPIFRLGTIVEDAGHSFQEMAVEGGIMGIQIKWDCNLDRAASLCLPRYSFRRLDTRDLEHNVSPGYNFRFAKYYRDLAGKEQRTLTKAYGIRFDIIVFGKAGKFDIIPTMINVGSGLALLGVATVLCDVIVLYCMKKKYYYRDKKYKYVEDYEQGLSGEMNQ
Text: As P2X4Rs are reported to be highly permeable to Ca^2+ (Khakh, B. S. et al. International union of pharmacology. XXIV. Current status of the nomenclature and properties of P2X receptors and their subunits. Pharmacol Rev 53, 107-118, 2001), we investigated whether the P2X4Rs on these microglia were functional by applying the agonist ATP and monitoring the level of intracellular Ca^2+ ([Ca^2+]i) in individual cells using the Ca^2+-sensitive fluorescent dye fura-2.
The detailed procedures are as follows. Rat primary cultured microglia were prepared according to the method described previously (Nakajima, K. et al. Identification of elastase as a secretory protease from cultured rat microglia. J Neurochem 58, 1401-1408, 1992). In brief, mixed glial culture was prepared from neonatal Wistar rats and maintained for 10-16 days in DMEM with 10% fetal bovine serum. Microglia were obtained as floating cells over the mixed glial culture. The floating cells were collected by a gentle shake and transferred to appropriate dishes or glasses, and then the microglia attached to them were used for RT-PCR, intracellular Ca^2+ imaging, immunocytochemistry.

[2] = tested on: normal rats; assay: Tactile allodynia in normal rats after intrathecal administration of ATP-stimulated cultured microglia; assay type: in vivo, rat
Method: (§1) We used the spinal nerve injury model (Kim, S. H. & Chung, J. M. An experimental model for peripheral neuropathy produced by segmental spinal nerve ligation in the rat. Pain 50, 355-363. (1992)) with some modifications; a unilateral L5 spinal nerve of male Wistar rats was tightly ligated and cut just distal to the ligature. The mechanical allodynia was assessed in naive and nerve-injured rats using calibrated von Frey filaments (0.4-15.1 g). Rats were injected intrathecally with P2XR antagonists, TNP-ATP and PPADS (Sigma-RBI), and antisense and mismatch ODN. For the experiments in FIG. 5, the cultured microglia (see Supplementary Information 1) that had been pre-incubated with or without ATP (50 μM) were injected intrathecally in normal rats. Full details of experimental methods are as follows.
(§2) A unilateral L5 spinal nerve of male Wistar rats was tightly ligated and cut just distal to the ligature. To assess the mechanical allodynia, the calibrated von Frey filaments (0.4-15.1 g) were applied to the plantar surface of the hindpaw from below the mesh floor. The 50% paw withdrawal threshold was determined using the up-down method (Chaplan, S. R., Bach, F. W., Pogrel, J. W., Chung, J. M. & Yaksh, T. L. Quantitative assessment of tactile allodynia in the rat paw. J Neurosci Methods 53, 55-63, 1994). Rats were implanted with a PE-10 polyethylene tube to the lumber enlargement (Yaksh, T. L., Jessell, T. M., Gamse, R., Mudge, A. W. & Leeman, S. E. Intrathecal morphine inhibits substance P release from mammalian spinal cord in vivo. Nature 286, 155-157, 1980) for intrathecal injection of P2XR antagonists [2′,3′-O-(2,4,6-trinitrophenyl)adenosine 5′-triphosphate (TNP-ATP) (Sigma-RBI) and pyridoxalphosphate-6-azophenyl-2′,4′-disulphonic acid (PPADS) (Sigma-RBI)], P2X4R antisense or mismatch ODN. We confirmed that PPADS and TNP-ATP used in the present study show biological activity to inhibit effects of α,β-methylene ATP in vitro and in vivo. The 16-base antisense ODN endcapped with phosphorothioate linkages were designed according to the primary sequence of the rat P2X4R cDNA (X87763). The sequence of the P2X4R antisense and mismatch ODN was 5′-CAGCCCGCCATGGCTC-3′ (SEQ ID NO: 3) and 5′-ACCGCCGCCAGTGCCT-3′ (SEQ ID NO: 4), respectively. The mismatch ODN served as a control. Rats were injected intrathecally with antisense ODN (5 nmol 10 μl^−1) and mismatch ODN (5 nmol 10 μl^−1) using a 25-μl Hamilton syringe with 28-gauge needle once a day from day 0 (immediately after nerve injury) to day 6. […] After the test, to quantify the levels of P2X4R protein in the spinal cord in both groups using Western blot analysis, the membrane fraction from the ipsilateral spinal cord segments L4-L6 was prepared. […]

[3] = tested on: effects of α,β-methylene ATP; assay: Check of biological activity against effects of α,β-methylene ATP in vitro and in vivo
Method: as §2, with “vivo.” for “vivo. The 16-base antisense ODN endcapped with phosphorothioate linkages were designed according to the primary sequence of the rat P2X4R cDNA (X87763). The sequence of the P2X4R antisense and mismatch ODN was 5′-CAGCCCGCCATGGCTC-3′ (SEQ ID NO: 3) and 5′-ACCGCCGCCAGTGCCT-3′ (SEQ ID NO: 4), respectively. The mismatch ODN served as a control. Rats were injected intrathecally with antisense ODN (5 nmol 10 μl^−1) and mismatch ODN (5 nmol 10 μl^−1) using a 25-μl Hamilton syringe with 28-gauge needle once a day from day 0 (immediately after nerve injury) to day 6.”

[4] = tested on: male Wistar rats with L5 spinal nerve injury; assay: Tactile allodynia after L5 spinal nerve injury, von Frey paw withdrawal threshold, intrathecal injection; assay type: in vivo, rat; conditions: for paw withdrawal threshold 45 min after injection: ipsilateral hindpaw
Method: as §1
A unilateral L5 spinal nerve of male Wistar rats was tightly ligated and cut just distal to the ligature. To assess the mechanical allodynia, the calibrated von Frey filaments (0.4-15.1 g) were applied to the plantar surface of the hindpaw from below the mesh floor. The 50% paw withdrawal threshold was determined using the up-down method (Chaplan, S. R., Bach, F. W., Pogrel, J. W., Chung, J. M. & Yaksh, T. L. Quantitative assessment of tactile allodynia in the rat paw. J Neurosci Methods 53, 55-63, 1994). Rats were implanted with a PE-10 polyethylene tube to the lumber enlargement (Yaksh, T. L., Jessell, T. M., Gamse, R., Mudge, A. W. & Leeman, S. E. Intrathecal morphine inhibits substance P release from mammalian spinal cord in vivo. Nature 286, 155-157, 1980) for intrathecal injection of P2XR antagonists [2′,3′-O-(2,4,6-trinitrophenyl)adenosine 5′-triphosphate (TNP-ATP) (Sigma-RBI) and pyridoxalphosphate-6-azophenyl-2′,4′-disulphonic acid (PPADS) (Sigma-RBI)], P2X4R antisense or mismatch ODN. We confirmed that PPADS and TNP-ATP used in the present study show biological activity to inhibit effects of α,β-methylene ATP in vitro and in vivo. The 16-base antisense ODN endcapped with phosphorothioate linkages were designed according to the primary sequence of the rat P2X4R cDNA (X87763). The sequence of the P2X4R antisense and mismatch ODN was 5′-CAGCCCGCCATGGCTC-3′ (SEQ ID NO: 3) and 5′-ACCGCCGCCAGTGCCT-3′ (SEQ ID NO: 4), respectively. The mismatch ODN served as a control. Rats were injected intrathecally with antisense ODN (5 nmol 10 μl^−1) and mismatch ODN (5 nmol 10 μl^−1) using a 25-μl Hamilton syringe with 28-gauge needle once a day from day 0 (immediately after nerve injury) to day 6. On day 7, paw withdrawal threshold of antisense ODN- and mismatch ODN-treated rats were tested. After the test, to quantify the levels of P2X4R protein in the spinal cord in both groups using Western blot analysis, the membrane fraction from the ipsilateral spinal cord segments L4-L6 was prepared. For the experiments in which cultured microglia were administered intrathecally, the cultured microglia were pre-incubated with ATP (50 μM) or PBS for 1 hr at 37° C. immediately prior to administration. Microglia with their supernatant were injected intrathecally in normal rats and paw withdrawal threshold was tested 1, 3 and 5 hr later. TNP-ATP (10 μM) was preincubated with microglia starting 10 min prior to ATP application.

[5] = tested on: microglia in the dorsal horn; assay: Number of microglia and OX42 immunofluorescence in dorsal horn after ODN treatment; assay type: in vivo, rat; conditions: 5 nmol intrathecal once a day for 7 days
Text: (§3) Transverse L5 spinal cord sections (30 μm) were cut and processed for immunohistochemistry using P2X4R antibody (Alomone). Markers of microglia, OX42 (Chemicon) and iba1 (gifted from S. Kohsaka); astrocytes, GFAP (Boehringer Mannheim); spinal cord neurones, NeuN (Chemicon) and MAP2 (Chemicon) were used to identify the type of P2X4R-positive cells. To assess immunofluorescence staining of cells quantitatively, we measured the immunofluorescence intensity of the P2X4R or OX42 as the average pixel intensity within each cell. Full details of experimental methods are as follows.
(§4) Transverse L5 spinal cord sections (30 μm) were incubated for 2 hr at room temperature in a blocking solution (3% normal goat serum) and then incubated for 48 hr at 4° C. in the primary antibody for P2X4R (anti-P2X4 receptor, 1:500, Alomone). […] The spinal cord sections were analysed using a MicroRadiance Confocal Imaging System (Bio-Rad) and an Olympus IX70 microscope equipped for epifluorescence. […] Microglia, as identified by OX42 immunofluorescence were outlined, and the immunofluorescence intensity (using a 9-bit scale) of the P2X4R or OX42 was determined as the average pixel intensity within each cell. Background fluorescence intensity was determined and was subtracted from the value obtained for microglia.

[6] = tested on: P2X4R protein; assay: Immunofluorescence intensity of P2X4R protein in individual dorsal horn microglia after ODN treatment; assay type: in vivo, rat; conditions: 5 nmol intrathecal once a day for 7 days
Text: as §3, §4

[7] = tested on: P2X4R protein; assay: Western blot of P2X4R protein in spinal cord membrane fraction after intrathecal ODN treatment; assay type: in vivo, rat; conditions: 5 nmol intrathecal once a day for 7 days, immunoblot
Method: A unilateral L5 spinal nerve of male Wistar rats was tightly ligated and cut just distal to the ligature. To assess the mechanical allodynia, the calibrated von Frey filaments (0.4-15.1 g) were applied to the plantar surface of the hindpaw from below the mesh floor. The 50% paw withdrawal threshold was determined using the up-down method (Chaplan, S. R., Bach, F. W., Pogrel, J. W., Chung, J. M. & Yaksh, T. L. Quantitative assessment of tactile allodynia in the rat paw. J Neurosci Methods 53, 55-63, 1994). […] After the test, to quantify the levels of P2X4R protein in the spinal cord in both groups using Western blot analysis, the membrane fraction from the ipsilateral spinal cord segments L4-L6 was prepared. […]
The membrane fraction from spinal cord segments L4-L6 ipsilateral or contralateral to the nerve injury was used. […] The blots were detected using a chemiluminescence method (ECL system; Amersham) and exposed to autoradiography films (Hyperfilm-ECL; Amersham).

[8] = tested on: rat model of postoperative pain; conditions: administration at the incision area, effective only before surgical operation; cited from earlier work
[9] = tested on: nociceptive behaviours; conditions: intrathecal 30 or 100 nmol; cited from earlier work
[10] = 30 nmol intrathecal 5 hr after ATP-stimulated microglia
[11] = 5 nmol intrathecal once a day for 7 days, tested day 7

Question: Which “ATP-evoked increase in 340/360 ratio (fura-2)” value ([1]; 10 μM) does the source give for “2′,3′-O-(2,4,6-Trinitrophenyl) Adenosine 5′-Triphosphate [TNP-ATP]” here?
Answer: suppressed

Question: And the “effect on allodynia caused by ATP-stimulated microglia” value [2, 10]?
Answer: reversed the allodynia

Question: What about the “time of peak increase in paw withdrawal threshold after injection” value [2, 10] of the same compound?
Answer: 45 to 75 min

Question: What about the “decrease in paw withdrawal threshold caused by ATP-stimulated microglia” value ([2]; 10 μM together with ATP (50 μM) in the microglia pre-incubation) of the same compound?
Answer: prevented

Question: And the “biological activity on effects of α,β-methylene ATP” value [3]?
Answer: inhibit

Question: What about the “paw withdrawal threshold on the side contralateral to the nerve injury” value ([4]; 30 nmol intrathecal, 45 min after injection) of the same compound?
Answer: 14.3 ± 0.8 g

Question: What about the “time of peak increase in paw withdrawal threshold after injection” value ([4]; 30 nmol intrathecal, nerve-injured rats) of the same compound?
Answer: about 45 min

Question: What about the “effect on tactile allodynia” value ([4]; day 7, 30 nmol intrathecal, at peak of effect) of the same compound?
Answer: reversed

Question: And the “dose producing half-maximum effect on paw withdrawal threshold” value ([4]; day 7, intrathecal)?
Answer: 8.1 nmol

Question: And the “paw withdrawal threshold 45 min after injection” value ([4]; day 7 after nerve injury, 30 nmol intrathecal)?
Answer: 14.6 ± 0.5 g

Question: What about the “recovery of paw withdrawal threshold” value ([4]; day 14, 30 nmol intrathecal, 45 min after injection) of the same compound?
Answer: 73%

Question: And the “dose producing half-maximum effect on paw withdrawal threshold” value ([4]; day 14, intrathecal)?
Answer: 15.5 nmol

Question: What about the “paw withdrawal threshold 45 min after injection” value ([4]; day 14 after nerve injury, 30 nmol intrathecal) of the same compound?
Answer: 11.6 ± 1.3 g

Question: And the “motor behaviour following administration” value ([4]; intrathecal)?
Answer: no alteration

Question: For “5′-ACCGCCGCCAGTGCCT-3′ (DNA, backbone and methylation of C not given here; end-capped with phosphorothioate linkages) [mismatch ODN]”, which “paw withdrawal threshold compared with untreated controls” value [4, 11] is on record?
Answer: not different

Question: With “5′-CAGCCCGCCATGGCTC-3′ (phosphorothioate end caps, number of linkages not given here) [P2X4R antisense ODN]” as the compound, how does the “level of OX42 immunofluorescence per individual microglia versus mismatch ODN” value [5] read?
Answer: nor was there a difference

Question: What about the “number of microglia in the dorsal horn versus mismatch ODN” value [5] of the same compound?
Answer: no difference

Question: What about the “decrease of immunofluorescence intensity of P2X4R protein in individual microglia versus mismatch ODN” value [6] of the same compound?
Answer: 37.1±0.2%

Question: And the “decrease of P2X4R protein level in spinal cord homogenates versus mismatch ODN” value [7]?
Answer: 32.0±4.8%

Question: What about the “nerve injury-induced decrease in paw withdrawal threshold compared with mismatch ODN” value [4, 11] of the same compound?
Answer: significantly less

Question: What about the “recovery of paw withdrawal threshold towards the baseline level prior to nerve injury” value [4, 11] of the same compound?
Answer: 47.4±8.3%

Question: What does the source list for `Nc1ncnc2c1ncn2[C@@H]1O[C@H](COP(=O)(O)OP(=O)(O)OP(=O)(O)O)[C@@H](O)[C@H]1O` [ATP, adenosine 5′-triphosphate]?
Answer: 340/360 emission ratio for fura-2 ([Ca2+]i) ([1]; agonist 50 μM, 10 s): transient increase; paw withdrawal threshold after intrathecal administration ([2]; normal rats, ATP 50 μM, tested 1, 3 and 5 hr later): unaffected

Question: Which “ATP-evoked increase in 340/360 ratio (fura-2)” value ([1]; 10 μM) does the source give for `Cc1nc(N=Nc2ccc(S(=O)(=O)O)cc2S(=O)(=O)O)c(COP(=O)(O)O)c(C=O)c1O` [PPADS, Pyridoxalphosphate-6-azophenyl-2′,4′-disulphonic acid] here?
Answer: unaffected

Question: What about the “allodynia in a rat model of postoperative pain” value [8] of the same compound?
Answer: suppressed allodynia

Question: And the “biological activity on effects of α,β-methylene ATP” value [3]?
Answer: inhibit

Question: What about the “effect on paw withdrawal threshold” value ([4]; day 7, 30 or 100 nmol intrathecal) of the same compound?
Answer: no effect

Question: What about the “effect on paw withdrawal threshold” value ([4]; day 14, 30 or 100 nmol intrathecal) of the same compound?
Answer: no effect

Question: What about the “nociceptive behaviours (intrathecal α,β-methylene ATP, second phase of formalin test, bee venom)” value [9] of the same compound?
Answer: suppress

Question: With `CCOc1ccc(Nc2ccc(/C(=C3C=C/C(=[N+](/CC)Cc4cccc(S(=O)(=O)[O-])c4)C=C/3C)c3ccc(N(CC)Cc4cccc(S(=O)(=O)[O-])c4)cc3C)cc2)cc1.[Na+]` [brilliant blue G] as the compound, how does the “ATP-evoked increase in 340/360 ratio (fura-2)” value ([1]; 100 nM) read?
Answer: not altered
